Source: patent US11051515B2, “3-acyl-benzamides and their use as herbicides” (Bayer Aktiengesellschaft, priority 2017, dated 2021)

Legend:
[1] = tested on: SETVI; assay: Post-emergence action against SETVI; format: in vivo, Setaria viridis; conditions: post-emergence, dosage 80 g/ha, visual assessment about 3 weeks after treatment vs untreated controls
In short: (§1)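 Post-emergence foliar spray on greenhouse plants at the one-leaf stage, using wettable-powder or emulsion-concentrate formulations in water (600 to […], plus 0.2% wetting agent). Damage scored by eye roughly 3 weeks later against untreated plants: 0% = like control, 100% = dead.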

[2] = tested on: AMARE; assay: Pre-emergence action against AMARE; format: in vivo, Amaranthus retroflexus; conditions: pre-emergence, dosage 320 g/ha, scored visually after 3 weeks vs untreated controls
In short: (§2)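 Seeds sown in sandy loam in wood-fiber pots and covered with soil. Greenhouse growth; visual damage scored after 3 weeks versus untreated controls (100% = dead, 0% = like control).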

[3] = tested on: LOLMU; assay: Post-emergence action against LOLMU; format: in vivo, Lolium multiflorum; conditions: dosage 80 g/ha, visual assessment about 3 weeks after treatment vs untreated controls
In short: as §1

[4] = tested on: ALOMY; assay: Post-emergence action against ALOMY; format: in vivo, Alopecurus myosuroides; conditions: Dosage 80 g/ha, post-emergence
In short: as §1

[5] = tested on: VERPE; assay: Post-emergence action against VERPE; format: in vivo, Veronica persica; conditions: dosage 80 g/ha
In short: as §1

[6] = tested on: MATIN; assay: Post-emergence action against MATIN; format: in vivo, Matricaria inodora; conditions: post-emergence, dosage 80 g/ha, visual assessment about 3 weeks after treatment vs untreated controls
In short: as §1

[7] = tested on: VIOTR; assay: Pre-emergence action against VIOTR; format: in vivo, Viola tricolor; conditions: Dosage 320 g/ha, pre-emergence
In short: as §2

[8] = tested on: LOLMU; assay: Pre-emergence action against LOLMU; format: in vivo, Lolium multiflorum; conditions: dosage 320 g/ha, scored visually after 3 weeks vs untreated controls
In short: as §2

[9] = tested on: ECHCG; assay: Post-emergence action against ECHCG; format: in vivo, Echinochloa crus-galli; conditions: post-emergence, dosage 80 g/ha, visual assessment about 3 weeks after treatment vs untreated controls
In short: as §1

[10] = tested on: AVEFA; assay: Post-emergence action against AVEFA; format: in vivo, Avena fatua; conditions: post-emergence, dosage 80 g/ha, visual assessment about 3 weeks after treatment vs untreated controls
In short: as §1

[11] = tested on: ALOMY; assay: Pre-emergence action against ALOMY; format: in vivo, Alopecurus myosuroides; conditions: dosage 320 g/ha; pre-emergence; scored visually after 3 weeks vs untreated controls; 100% = plants have died, 0% = like control plants
In short: as §2

[12] = tested on: CYPES; assay: Post-emergence action against CYPES; format: in vivo, Cyperus esculentus; conditions: post-emergence, dosage 80 g/ha, visual assessment about 3 weeks after treatment vs untreated controls
In short: as §1

[13] = tested on: ABUTH; assay: Post-emergence action against ABUTH; format: in vivo, Abutilon theophrasti; conditions: post-emergence, dosage 80 g/ha, visual assessment about 3 weeks after treatment vs untreated controls
In short: as §1

[14] = tested on: STEME; assay: Post-emergence action against STEME; format: in vivo, Stellaria media; conditions: post-emergence, dosage 80 g/ha
In short: as §1

[15] = tested on: CYPES; assay: Pre-emergence action against CYPES; format: in vivo, Cyperus esculentus; conditions: pre-emergence, dosage 320 g/ha, scored visually after 3 weeks vs untreated controls
In short: as §2

[16] = tested on: SETVI; assay: Pre-emergence action against SETVI; format: in vivo, Setaria viridis; conditions: pre-emergence, dosage 320 g/ha, scored visually after 3 weeks vs untreated controls
In short: as §2

[17] = tested on: AMARE; assay: Post-emergence action against AMARE; format: in vivo, Amaranthus retroflexus; conditions: post-emergence, dosage 80 g/ha, visual assessment about 3 weeks after treatment vs untreated controls
In short: as §1

[18] = tested on: ABUTH; assay: Pre-emergence action against ABUTH; format: in vivo, Abutilon theophrasti; conditions: pre-emergence, dosage 320 g/ha, scored visually after 3 weeks vs untreated controls
In short: as §2

[19] = tested on: AVEFA; assay: Pre-emergence action against AVEFA; format: in vivo, Avena fatua; conditions: dosage 320 g/ha, scored visually after 3 weeks vs untreated controls
In short: as §2

[20] = tested on: POLCO; assay: Post-emergence action against POLCO; format: in vivo, Polygonum convolvulus; conditions: post-emergence, dosage 80 g/ha
In short: as §1

[21] = tested on: ECHCG; assay: Pre-emergence action against ECHCG; format: in vivo, Echinochloa crus-galli; conditions: pre-emergence, dosage 320 g/ha, scored visually after 3 weeks vs untreated controls
In short: as §2

[22] = tested on: PHBPU; assay: Post-emergence action against PHBPU; format: in vivo, Pharbitis purpurea; conditions: post-emergence, dosage 80 g/ha
In short: as §1

[23] = tested on: VERPE; assay: Pre-emergence action against VERPE; format: in vivo, Veronica persica; conditions: Dosage 320 g/ha, pre-emergence
In short: as §2

[24] = tested on: VIOTR; assay: Post-emergence action against VIOTR; format: in vivo, Viola tricolor; conditions: post-emergence, dosage 80 g/ha
In short: as §1

[25] = tested on: MATIN; assay: Pre-emergence action against MATIN; format: in vivo, Matricaria inodora; conditions: Dosage 320 g/ha, pre-emergence
In short: as §2

[26] = tested on: STEME; assay: Pre-emergence action against STEME; format: in vivo, Stellaria media; conditions: Dosage 320 g/ha, pre-emergence
In short: as §2

[27] = tested on: PHBPU; assay: Pre-emergence action against PHBPU; format: in vivo, Pharbitis purpurea; conditions: Dosage 320 g/ha, pre-emergence
In short: as §2

Compound	Post-emergence action against SETVI (herbicidal action in percent) [1] [%]	Pre-emergence action against AMARE (herbicidal activity) [2] [%]	Post-emergence action against LOLMU (herbicidal action in percent) [3] [%]	Post-emergence action against ALOMY [4] [%]	Post-emergence action against VERPE [5]	Post-emergence action against MATIN (herbicidal action in percent) [6] [%]	Pre-emergence action against VIOTR [7] [%]	Pre-emergence action against LOLMU (herbicidal activity) [8] [%]	Post-emergence action against ECHCG (herbicidal action in percent) [9] [%]	Post-emergence action against AVEFA (herbicidal action in percent) [10] [%]	Pre-emergence action against ALOMY (herbicidal activity in percent) [11] [%]	Post-emergence action against CYPES (herbicidal action in percent) [12] [%]	Post-emergence action against ABUTH (herbicidal action in percent) [13] [%]	Post-emergence action against STEME [14]	Pre-emergence action against CYPES (herbicidal activity) [15] [%]	SETVI (Table B8, pre-emergence herbicidal activity) [16] [%]	Post-emergence action against AMARE (herbicidal action in percent) [17] [%]	Pre-emergence action against ABUTH (herbicidal activity) [18] [%]	Pre-emergence action against AVEFA (herbicidal activity) [19] [%]	Post-emergence action against POLCO [20]	further results
CCn1nnnc1NC(=O)c1ccc(S(C)(=O)=O)c(C(=O)C2CC2)c1Cl [2-129]	100	100	90	100	100	100	100	90	90	100	90	80	80	100	100	100	100	100	100	100	Pre-emergence action against ECHCG (herbicidal activity) [21]: 100%; Post-emergence action against PHBPU [22]: 100; Pre-emergence action against VERPE [23]: 100%; Post-emergence action against VIOTR [24]: 100; Pre-emergence action against MATIN [25]: 100%; Pre-emergence action against STEME [26]: 100%
CCC(=O)c1c(C(F)(F)F)ccc(C(=O)Nc2nnnn2CC)c1C [2-15]	100	100	90	100	90	90	100	100	90	80	100	90	100	100	90	100	90	100	100	100	Pre-emergence action against ECHCG (herbicidal activity) [21]: 100%; Post-emergence action against PHBPU [22]: 80; Pre-emergence action against VERPE [23]: 100%; Pre-emergence action against PHBPU [27]: 80%; Post-emergence action against VIOTR [24]: 100; Pre-emergence action against MATIN [25]: 100%; Pre-emergence action against STEME [26]: 100%
